# Results taken from patent publication US20240033244A1, “COMPOSITIONS AND METHODS FOR INHIBITING YTHDF1” (SHANGHAI INSTITUTE OF MATERIA MEDICA, CHINESE ACADEMY OF …, priority 2020, published 2024).
# pKd: −log10 of the molar value.
# Key:
# [1] = system: tumor infiltrating T cells; assay: Flow cytometry of exhaustion markers on tumor infiltrating T cells; format: in vivo, mouse; conditions: 14 days after tumor inoculation
# Description: For flow cytometry analysis and DCs sorting, tumors, draining lymph nodes were gathered from mice and digested with 100 U/mL collagenase IV and 20 μg/mL DNase I at 37° C. for 40 min. Digestion was stopped by FACS buffer (PBS contains 2% FBS and 1 mM EDTA) and samples were filtered through 70-μm cell strainer. Samples were stained by specific antibodies in FACS buffer on ice for 30 min. Antibody information was described in Table 1 below. All samples were washed with FACS buffer after staining, cells were analyzed on BD Fortessa and sorted by AriaIII.
# In addition, terminally exhausted T cells (PD-1 and Tim-3 double positive cells) were assessed 14 days after tumor inoculation with SAA treatment, and it was observed that the frequency of these tumor infiltrating terminally exhausted T cells (PD-1^+Tim-3^+) decreased in SAA treated mice (FIG. 18b), confirming the enhanced anti-tumor activity.
# B16-OVA tumor [2] = assay: B16-OVA tumor growth, SAA with anti-PD-L1 antibody; format: in vivo, mouse; conditions: 5×10^5 B16-OVA; 10 μM SAA day 9 and 11; 100 ug anti-PD-L1 antibody day 9
# Description: (§1) For B6 mice tumor growth, 5×10^5 B16-OVA or 1×10^6 E.G7-OVA tumor cells were inoculated subcutaneously (s.c.) into the flank of mice. Tumor length (a) and width (b) was measured every two days and tumor volume was calculated by the formula ab^2/2. For the inhibitor treatment, 10 μM SAA or DMSO was injected intraperitoneally (i.p.) on day 9 and 11 after tumor inoculation. For other mice model (rag1^−/− and Ythdf1 conditional knockout), times and dose of inhibitor treatment was the same. For α-PD-L1 and SAA combination treatment, 5×10^5 B16-OVA tumor cells were inoculated subcutaneously into the flank of mice. 100 μg α-PD-L1 antibody (clone 10F.9G2) or rat immunoglobulin were administered at day 9 after tumor inoculation. 10 μM SAA or DMSO was administered in the same way on day 9 and 11 after tumor injection.
# Wild-type mice were injected subcutaneously with 5×10^5 B16-OVA cells. 10 μM SAA was injected to each mouse on day 9 and day 11. Mice were also treated with 100 ug anti-PD-L1 antibody on day 9. Tumor growth was monitored over time.
# [3] = system: classical DCs in draining lymph node; assay: Ex vivo direct-priming by DCs sorted from draining lymph node of treated mice with OT-I peptide; format: in vivo, mouse; conditions: four DC subtypes from SAA treated mice, 1 μg/mL OT-I peptide
# Description: For in vitro cross-presentation study, mature FLT3L-DCs were harvested on day 9 and purified by EasySep Mouse CD11 c Positive Selection Kit II, then treated with 10 μM SAA or DMSO in IMDM medium (contain 10% bovine and 100 ng/mL FLT3L) for 10 h. […] Then antigen-obtained DCs were purified and co-cultured with naïve T cells from OT-1 mice at a ratio of 1:10 for 96 h. The co-culture medium was 1640 RPMI contains 10% fetal bovine with or without 1 μg/mL OT-1 (OVA 257-264) peptide. For ex vivo DCs cross-presentation assay, four types of DCs (migration CD11b DC, migration CD103′ DC, resident CD11b DC and resident CD8^+ DC) were sorted in draining lymph node from SAA treated B16-OVA bearing mice at day 12. These DCs were co-cultured with OT-1 naïve T cells in the ratio of 1:10 for 96 hours with or without OT-1 peptide. Supernatant IFN-γ production was detected via CBA assay.
# Dendritic cells can activate T cells through cross-priming and/or direct-priming. In direct-priming process, DCs could stimulate T cells via surface co-stimulatory molecules such as CD80/CD86 or cytokines related with T cell activation. […] IFN-γ production was assessed by IFN-γ cytometric bead array. […] Then, IFN-γ production was assessed by IFN-γ cytometric bead array.
# B16-OVA tumor [4] = assay: B16-OVA tumor growth in Rag1-/- versus wild-type mice; format: in vivo, mouse; conditions: 1×10^5 B16-OVA, 10 μM SAA day 7 to day 9
# Description: as §1
# T/B cell-deficient Rag1^−/− mice were inoculated with 1×10^5 B16-OVA cells, and 10 μM SAA was then injected to each mouse from day 7 to day 9, and tumor growth was monitored, wild type mice were used as control group.
# YTHDF1 (361-559) = target: T1, YTHDF1 (361-559) (Homo sapiens, UniProt Q9BYJ9); assay: SPR binding assay
# T1 construct: GST (N, cleaved yes); made in house; host or cells: E. coli BL21 (DE3)
# T1 sequence (Q9BYJ9 with tags, fused parts or gaps): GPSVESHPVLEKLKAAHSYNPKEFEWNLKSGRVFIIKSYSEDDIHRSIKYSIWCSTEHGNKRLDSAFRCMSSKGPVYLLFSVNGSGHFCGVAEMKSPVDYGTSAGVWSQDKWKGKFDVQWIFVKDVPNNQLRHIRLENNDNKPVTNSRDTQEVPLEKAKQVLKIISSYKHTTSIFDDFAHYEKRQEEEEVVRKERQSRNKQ
# Description: SPR binding assay was conducted at 25° C. on the Biacore T200 instrument (GE Healthcare). YTHDF1 (361-559) was covalently immobilized on a CM5 chip via standard amine-coupling procedure in the condition of 10 mM sodium acetate (pH 5.5).
structure (smiles),measurement,setting,value
"O=C(/C=C/c1ccc(O)c(O)c1/C=C/c1ccc(O)c(O)c1)O[C@H](Cc1ccc(O)c(O)c1)C(=O)O [SAA, Salvianolic Acid A]",CXCR5 expression of PD-1low population,[1],much more CXCR5 than DMSO group
same,frequency of tumor infiltrating terminally exhausted T cells (PD-1+Tim-3+),[1],decreased
same,B16-OVA tumor growth,B16-OVA tumor [2],partially inhibit
same,direct-priming capacity of DC subtypes (IFN-γ production),[3],3 of the 4 DC subtypes showed improved direct-priming capacity
same,tumor growth,B16-OVA tumor [4],tumor growth was arrested
same,pKd,YTHDF1 (361-559),5.60
